Laboratory results as given in US20260325561A1, “4'-SUBSTITUTED NUCLEOSIDES AND NUCLEOTIDES AS ANTIVIRAL AGENTS” (THE SCRIPPS RESEARCH INSTITUTE, priority 2023, published 2026).

Experiments:
[1] = tested on: DENV-2; test: microbe, parasite or virus in culture; format: cell-based, DENV-2 16681; conditions: Dengue virus, DENV2, HepG2, 24 h, read-out: DENV-2 / HepG2 EC50
[2] = tested on: SARS-CoV-2; test: microbe, parasite or virus in culture; format: cell-based, SARS-CoV-2 strain USA-WA1/2020; conditions: Severe acute respiratory syndrome coronavirus 2, HeLa-ACE2, 24 h, read-out: SARS-CoV-2 / HeLa-ACE2 EC50
[3] = tested on: CHIKV; test: microbe, parasite or virus in culture; format: cell-based, CHIKV strain 181/25; conditions: Chikungunya virus, HepG2, 24 h, read-out: CHIKV / HepG2 EC50
[4] = in vitro; conditions: human, hepg2 cells
[5] = in vitro; conditions: human, hela-ace2 cells
[6] = tested on: RSV A2; test: microbe, parasite or virus in culture; format: cell-based; conditions: human respiratory syncytial virus, HEp-2, 72 h, read-out: RSV A2 / Hep2 EC50
[7] = tested on: HRV 14; test: microbe, parasite or virus in culture; format: cell-based, Human Rhinovirus 14 strain 1059; conditions: Rhinovirus B, H1-HeLa, 48 h, read-out: HRV / H1 HeLa B 14 EC50
[8] = tested on: HCMV; test: HCMV/HFF antiviral assay; format: cell-based; conditions: Human betaherpesvirus 5, HFF
[9] = Cytotoxicity, HFF; format: cell-based; conditions: human, hff cells; read-out: HCMV/HFF CC50
[10] = in vitro; conditions: human, hep2 cells
[11] = in vitro; conditions: human, h1 hela cells
[12] = tested on: HRV 16; test: microbe, parasite or virus in culture; format: cell-based, Human Rhinovirus 16 strain 11757; conditions: Rhinovirus A, H1-HeLa, 48 h, read-out: HRV / H1 HeLa A16 EC50

Row | Structure (SMILES) | EC50 [1] | EC50 [2] | EC50 [3] | CC50 at 72 h [4] | CC50 at 24 h [5] | EC50 [6] | EC50 [7] | EC50 [8] | CC50 [9] | CC50 [10] | CC50 [11] | EC50 [12]
1 | [N-]=[N+]=N[C@]1(CO)O[C@@H](n2ccc3c(N)ncnc32)[C@H](O)[C@@H]1O [Example 2, (2R,3S,4R,5R)-5-(4-amino-7H-pyrrolo[2,3-d]pyrimidin-7-yl)-2-azido-2-(hydroxymethyl)tetrahydrofuran-3,4-diol] | > 10 µM | > 10 µM | > 10 µM | > 99 µM | > 99 µM |  |  |  |  |  |  | 
2 | Nc1ncnc2c1ccn2[C@@H]1O[C@](F)(CO)[C@@H](O)[C@]1(F)Cl [Example 6, (2S,3R,4S,5R)-5-(4-amino-7H-pyrrolo[2,3-d]pyrimidin-7-yl)-4-chloro-2,4-difluoro-2-(hydroxymethyl)tetrahydrofuran-3-ol] | > 10 µM | > 10 µM |  | > 99 µM | > 99 µM | > 10 µM | > 10 µM | > 10 µM | > 99 µM | > 99 µM | > 99 µM | 
3 | [N-]=[N+]=N[C@]1(CO)O[C@@H](n2ccc3c(N)ncnc32)[C@@](F)(Cl)[C@@H]1O [Example 7, (2R,3R,4S,5R)-5-(4-amino-7H-pyrrolo[2,3-d]pyrimidin-7-yl)-2-azido-4-chloro-4-fluoro-2-(hydroxymethyl)tetrahydrofuran-3-ol] | > 10 µM | > 10 µM |  | > 99 µM | > 99 µM | > 10 µM | > 10 µM | > 10 µM | > 99 µM | > 99 µM | > 99 µM | 
4 | O=c1[nH]cnc2c1ccn2[C@@H]1O[C@](F)(CO)[C@@H](O)[C@H]1O [Example 16, 7-((2R,3R,4S,5S)-5-fluoro-3,4-dihydroxy-5-(hydroxymethyl)tetrahydrofuran-2-yl)-3,7-dihydro-4H-pyrrolo[2,3-d]pyrimidin-4-one] | > 10 µM | > 10 µM |  | > 99 µM | > 99 µM | > 10 µM | > 10 µM | > 10 µM | > 99 µM | > 99 µM | > 99 µM | > 10 µM
5 | Nc1ncnc2c1c(CO)cn2[C@@H]1O[C@](F)(CO)[C@@H](O)[C@H]1O [Example 17, (2S,3S,4R,5R)-5-(4-amino-5-(hydroxymethyl)-7H-pyrrolo[2,3-d]pyrimidin-7-yl)-2-fluoro-2-(hydroxymethyl)tetrahydrofuran-3,4-diol] | > 10 µM | > 10 µM | > 10 µM | 10 to 99 µM | > 99 µM |  |  |  |  |  |  | 
6 | Nc1ncnn2c([C@@H]3O[C@](F)(CO)[C@@H](O)[C@H]3O)cnc12 [Example 19, (2S,3S,4R,5S)-5-(4-aminoimidazo[2,1-f][1,2,4]triazin-7-yl)-2-fluoro-2-(hydroxymethyl)tetrahydrofuran-3,4-diol] | 0.1 to 1 µM | 1 to 10 µM | 0.1 to 1 µM | < 1 µM | 1 to 10 µM | > 10 µM | > 10 µM |  |  | 1 to 10 µM | 1 to 10 µM | > 10 µM
7 | Nc1ncnc2c1ccn2[C@@H]1C[C@](F)(CO)[C@@H](O)[C@H]1O [Example 30, (1S,2S,3S,5R)-5-(4-amino-7H-pyrrolo[2,3-d]pyrimidin-7-yl)-3-fluoro-3-(hydroxymethyl)cyclopentane-1,2-diol] | > 10 µM | > 10 µM | > 10 µM | 10 to 99 µM | 10 to 99 µM | 0.1 to 1 µM | > 10 µM |  |  | 1 to 10 µM | 10 to 99 µM | > 10 µM
8 | OC[C@@]1(F)O[C@@H](n2cc(Cl)c3cncnc32)[C@H](O)[C@@H]1O [Example 36, (2S,3S,4R,5R)-5-(5-chloro-7H-pyrrolo[2,3-d]pyrimidin-7-yl)-2-fluoro-2-(hydroxymethyl)tetrahydrofuran-3,4-diol] | < 0.1 µM | 0.1 to 1 µM |  | < 1 µM | 1 to 10 µM | 1 to 10 µM | > 10 µM | 0.1 to 1 µM | 1 to 10 µM | 10 to 99 µM | 10 to 99 µM | 
